Data as given in a melting point compilation (Tetko et al.; mined from patent text by program, amines drawn as free bases though some values may be those of a salt).

Compound | melting point
C=CCc1ccc(-c2nc3c(N[C@H]4[C@@H](C(N)=O)[C@@H]5C=C[C@H]4C5)c(Cl)cnc3[nH]2)c(OC)c1 | 123 to 126 °C
CC(=O)NCCn1ccc(=O)c(OCc2ccccc2)c1C(O)c1ccccc1 (stereo not given) | 180 to 182 °C
O=C(O)CS(=O)CC(=O)O | 118 to 119 °C
COC(=O)c1ccc(OCCNC(=O)OCc2ccccc2)cc1Cl | 88 to 90 °C
CCN(CC)c1ccc(S(=O)(=O)CCCCC(=O)O)cc1 | 106 to 108 °C
COc1ccc([C@@H]2C[C@H]2NC(=O)N(C)O)cc1OC (relative stereo) | 142 to 144 °C
O=C1OCCN1CCN1CCN(C2Cc3cc(Br)ccc3Sc3ccccc32)CC1 (stereo not given) | 170 to 172 °C
O=C(Nc1ccc(N2C[C@H]3CN(C(=O)OCc4ccccc4)C[C@H]3C2)c(F)c1)OCc1ccccc1 | 121 to 122 °C
CCc1cc(NC(=O)C(CS)Cc2ccccc2)cc(C(=O)O)c1 (stereo not given) | 159 to 160 °C
Cc1cn(C)c2ccc(NC(=O)Nc3cccnc3)cc12 | 210 °C
CC(=O)OC1C2C=CC1C1N=NC21 (stereo not given) | 58 °C
Cc1nc2ccccc2n1Cc1c(F)cccc1F | 99 °C
CC(Cc1cc(I)c(Oc2ccc(O)cc2)c(I)c1)(NC=O)C(=O)O (stereo not given) | 221 to 223 °C
COC(=O)C(CO)N(Cc1ccc(Cl)cc1N)S(=O)(=O)c1ccc(OC)cc1 (stereo not given) | 99 to 112 °C
O=C(O)CCc1c(C=C2C(=O)Nc3ccccc32)[nH]c2c1CCCC2 | 263 to 265 °C
COc1cc([C@@H](O)[C@@H](C)N2CCC(O)(c3ccccc3)CC2)ccc1O (relative stereo) | 188 °C
CCCN(CCC)C1Cc2c[nH]c3ccc(C(=O)CC)c(c23)C1 (stereo not given) | 149 to 150 °C
Cn1cc(C2=C(c3cn(C)c4cc([N+](=O)[O-])ccc34)C(=O)N(CO)C2=O)c2ccccc21 | 209 to 211 °C
CCC(=O)OC1(C(=O)C(O)OC(=O)C(NC(=O)OC(C)(C)C)C(C)C)CCC2C3CC(C)C4=CC(=O)C=CC4(C)C3C(O)CC21C (stereo not given) | 110 to 130 °C
CC(C)(C)c1cc(C(C)(CC(=O)O)c2ccc(O)c(C(C)(C)C)c2)ccc1O | 156 °C
Cc1ccc(S(=O)(=O)NC(=O)c2nc(Cl)c(Cl)[nH]2)cc1 | 238 °C
O=C(C1CCCCC1)N1CC(=O)N2CCOc3ccccc3C2C1 (stereo not given) | 92 to 93 °C
CN(C)CCn1c(=O)sc2ccc(Cl)cc21 | 62.5 to 65.5 °C
CC(CCN(C)c1ccc(Cl)cc1)NCC(O)c1ccc(O)c(C(N)=O)c1 (stereo not given) | 127 to 129 °C
COc1nc(C)c([N+](=O)[O-])cc1C | 85.9 to 90.5 °C

Compound | melting point
C=C(C)C(=O)NCCCNc1nc(Cl)nc(Cl)n1 | 138 to 140 °C
C1=C(/C=C/c2cccs2)CCN(Cc2c[nH]c3ncccc23)C1 | 202 to 204 °C
COC(=O)Cc1cccc(CNC(=O)C2Cc3ccccc3N2S(=O)(=O)c2ccc(-c3cccc(C(F)(F)F)c3)cc2)c1 (stereo not given) | 60 °C
COC(=O)c1cccc(Nc2nc(Cl)nc3[nH]cnc23)c1 | 242 °C
CC(C)(C)[C@H](COC(=O)OCc1ccccc1)NC(=O)[C@@H](CC(=O)OCc1ccccc1)n1ccc(-c2ccc(-c3ccncc3)cc2)c1 | 74 to 76 °C
CN1CCC(C2(O)c3sccc3CCn3ncnc32)CC1 (stereo not given) | 158 °C
Cc1nc(N2CCN(Cc3ccccc3)C2=O)sc1C(=O)NCc1cccnc1 | 153 to 154 °C
C=C(C)Cn1nc(C(=O)c2cccc(O)c2)c2ccccc21 | 75 to 78 °C
CC(C)(C)C1(C)C(=O)N=C2c3ccccc3C(=O)N21 (stereo not given) | 136 to 138 °C
OC(CN1CCC(c2ccc(F)cc2)CC1)CN1CCC(c2ccc(F)cc2)CC1 | 79 to 80 °C
COc1ccc(N2CCN(c3ccc(NC4=NCC(OC)S4)cc3)CC2)cc1 (stereo not given) | 178 °C
COc1ccc(Br)cc1N(C=NCl)C1CC1 | 185 °C
O=C1CCc2cc(Br)ccc2O1 | 103 to 105 °C
CC1(C)CCOc2ccc(C3(C)C=CC=CC3C=O)cc21 (stereo not given) | 85 to 86 °C
O=C(Nc1ccc(C(F)(F)F)cc1)Nc1cccc(S(=O)(=O)NCCN2CCOCC2)c1 | 62 to 65 °C
Cc1cc(C)c(Nc2nc(C)ccc2S(=O)(=O)c2ccc(OCc3ccccc3)cc2)c(C)c1 | 158 to 160 °C
N#Cc1ccc(Cn2cc(C#N)nn2)cc1 | 93.5 to 94 °C
CCOC(=O)c1cccc(-c2ccc(Cl)c3cc(Cc4ccc(F)c(F)c4)sc23)c1 | 124 to 125 °C
OC(CCCCBr)(c1ccc(F)cc1)c1ccc(F)cc1 | 55 °C
Cc1ccc(C(NC(=O)[C@H](CCC(=O)O)NC(=O)c2cc3ccccc3[nH]2)c2ccc(C)cc2)cc1 | > 260 °C
CCOC(=O)N[C@@H]1[C@H](O)C(=O)N2[C@H](c3ccccc3)OC[C@@H]12 | 176 to 178 °C
N#CCN1CCC(OC(c2ccccc2)c2ccccc2)CC1 | 78 to 80 °C
CNC(=O)C1CN(CCCC(c2ccc(F)cc2)c2ccc(F)cc2)CCN1CC(=O)Nc1c(C)cc(C)cc1C (stereo not given) | 90.2 °C
CC(=O)NC1(c2ccc(CN3CCN(c4ccccn4)CC3)cc2)CC1 | 145 to 147 °C
CCc1ccc2ncc(NC(=O)C=Cc3cc(OC)c(OC(C)=O)c(OC)c3)c(-c3ccccc3Cl)c2c1 | 136 to 137 °C
